We go through 19 compounds from ChEMBL document CHEMBL3871267, “Design and synthesis of 1,2,3-triazole-containing N-acyl zanamivir analogs as potent neuraminidase inhibitors” (Eur J Med Chem, 2016).

Each structure is given as a SMILES string. pIC50: −log10 of the molar value.

Experiment [1] has as its target Neuraminidase (Influenza A virus (strain A/Wilson-Smith/1933 H1N1) (Influenza A virus(strain A/WS/1933 H1N1)), UniProt P03470). Kind of experiment: Inhibition of MDCK infected Influenza A virus A/WSN/33(H1N1) neuraminidase using MU-NANA as substrate preincubated for 30 mins followed by substrate addition measured after 1 hr by spectrofluorometric method. The format is cell-based, Influenza A virus (A/WSN/1933(H1N1)).

Experiment [2] in a line: Inhibition of MDCK infected Influenza A virus A/Taiwan/3446/2002(H3N2) neuraminidase using MU-NANA as substrate preincubated for 30 mins followed by substrate addition measured after 1 hr by spectrofluorometric method. It counts as cell-based.
The nature of experiment [3]: Competitive inhibition of MDCK infected Influenza A virus A/Taiwan/3446/2002(H3N2) neuraminidase using MU-NANA as substrate preincubated for 30 mins followed by substrate addition measured after 1 hr by spectrofluorometric method.
The target of experiment [4] is Neuraminidase (Influenza A virus (strain A/Wilson-Smith/1933 H1N1) (Influenza A virus(strain A/WS/1933 H1N1)), UniProt P03470). As to the kind of experiment: Competitive inhibition of MDCK infected Influenza A virus A/WSN/33(H1N1) neuraminidase using MU-NANA as substrate preincubated for 30 mins followed by substrate addition measured after 1 hr by spectrofluorometric method. The format is cell-based, Influenza A virus (A/WSN/1933(H1N1)).
Sequence of Neuraminidase (Influenza A virus (strain A/Wilson-Smith/1933 H1N1) (Influenza A virus(strain A/WS/1933 H1N1)), UniProt P03470) (P03470 whole entry): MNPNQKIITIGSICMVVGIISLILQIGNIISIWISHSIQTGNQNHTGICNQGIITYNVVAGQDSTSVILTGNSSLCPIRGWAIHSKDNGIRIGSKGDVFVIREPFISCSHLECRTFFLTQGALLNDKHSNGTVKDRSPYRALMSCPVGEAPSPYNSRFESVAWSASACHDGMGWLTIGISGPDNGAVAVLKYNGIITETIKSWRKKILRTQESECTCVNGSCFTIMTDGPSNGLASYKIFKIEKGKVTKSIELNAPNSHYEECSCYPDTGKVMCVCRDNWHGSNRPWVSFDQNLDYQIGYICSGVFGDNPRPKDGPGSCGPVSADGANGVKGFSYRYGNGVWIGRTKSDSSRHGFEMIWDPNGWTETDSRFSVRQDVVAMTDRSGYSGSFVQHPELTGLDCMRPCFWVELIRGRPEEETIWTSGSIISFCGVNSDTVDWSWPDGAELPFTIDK

The pIC50 is the negative decadic logarithm of the IC50, by convention in mol/L. For `CC(=O)N[C@H]1[C@H]([C@H](O)[C@H](O)CO)OC(C(=O)O)=C[C@@H]1NC(=N)NC(=O)CSc1ccc2ccccc2c1`, the pIC50 in experiment [1] is 7.70; in experiment [2], 7.60.

`CC(=O)N[C@H]1[C@H]([C@H](O)[C@H](O)CO)OC(C(=O)O)=C[C@@H]1NC(=N)NC(=O)Cn1cc(-c2ccccc2N)nn1`: the pIC50 in experiment [1] is 7.92; in experiment [2], 7.89.

Turning to `CC(=O)N[C@H]1[C@H]([C@H](O)[C@H](O)CO)OC(C(=O)O)=C[C@@H]1NC(=N)NC(=O)Cn1cc(-c2cccc(Cl)c2)nn1`, the results for the pIC50 in experiment [1] and in experiment [2] were 8.05 and 8.10, respectively.

Consider `COc1ccc(-c2cn(CC(=O)NC(=N)N[C@H]3C=C(C(=O)O)O[C@@H]([C@H](O)[C@H](O)CO)[C@@H]3NC(C)=O)nn2)cc1`, for which the pIC50 in experiment [1] is 7.92; in experiment [2], 7.77.

On to `CC(=O)N[C@H]1C([C@H](O)[C@H](O)CO)OC(C(=O)O)=C[C@@H]1NC(=N)NC(=O)Cn1cc(-c2ccccc2)nn1` (stereo partly drawn), for which the pIC50 was 8.10 in experiment [3] and 8.00 in experiment [4].

As to `CC(=O)N[C@H]1C([C@H](O)[C@H](O)CO)OC(C(=O)O)=C[C@@H]1NC(=N)NC(=O)CCCCn1cc(-c2ccccc2)nn1` (stereo partly drawn), the values for the pIC50 in experiment [3] and in experiment [4] were 6.96 and 6.77, respectively.

As for `CC(=O)N[C@H]1[C@H]([C@H](O)[C@H](O)CO)OC(C(=O)O)=C[C@@H]1NC(=N)NC(=O)Cn1cc(C2=CCCCC2)nn1`, the figures for the pIC50 in experiment [1] and in experiment [2] were 7.82 and 7.77, respectively.

In the case of `CC(=O)N[C@H]1[C@H]([C@H](O)[C@H](O)CO)OC(C(=O)O)=C[C@@H]1NC(=N)NC(=O)Cn1cc(C2CCCCC2)nn1`, the negative-log IC50 (pIC50) in experiment [1] is 8.64; in experiment [2], 8.54.

In the case of `CC(=O)N[C@H]1C([C@H](O)[C@H](O)CO)OC(C(=O)O)=C[C@@H]1NC(=N)NC(=O)CCn1cc(-c2ccccc2)nn1` (stereo partly drawn), the negative-log IC50 (pIC50) was 6.87 in experiment [3] and 6.84 in experiment [4].

In the case of `CC(=O)N[C@H]1[C@H]([C@H](O)[C@H](O)CO)OC(C(=O)O)=C[C@@H]1NC(=N)NC(=O)Cn1cc(-c2ccc(C)cc2)nn1`, the pIC50 in experiment [1] is 7.85; in experiment [2], 7.77.

`CCOC(=O)c1cccc(-c2cn(CC(=O)NC(=N)N[C@H]3C=C(C(=O)O)O[C@@H]([C@H](O)[C@H](O)CO)[C@@H]3NC(C)=O)nn2)c1`: the pIC50 in experiment [1] is 7.89; in experiment [2] it was 7.72.

As to `CC(=O)N[C@H]1[C@H]([C@H](O)[C@H](O)CO)OC(C(=O)O)=C[C@@H]1NC(=N)NC(=O)Cn1cc(-c2ccc(Cl)cc2)nn1`, the negative logarithm of the IC50 (pIC50) is 7.82 in experiment [1] and 7.85 in experiment [2].

For the compound `CC(=O)N[C@H]1[C@H]([C@H](O)[C@H](O)CO)OC(C(=O)O)=C[C@@H]1NC(=N)NC(=O)Cn1cc(-c2ccc(F)cc2)nn1`, the pIC50 was 7.54 in experiment [1] and 7.57 in experiment [2].

Turning to `CC(=O)N[C@H]1[C@H]([C@H](O)[C@H](O)CO)OC(C(=O)O)=C[C@@H]1NC(=N)NC(=O)Cn1cc(-c2cccc(F)c2)nn1`, the pIC50 in experiment [1] was 7.85; in experiment [2], 7.77.

For the compound `COc1ccccc1-c1cn(CC(=O)NC(=N)N[C@H]2C=C(C(=O)O)O[C@@H]([C@H](O)[C@H](O)CO)[C@@H]2NC(C)=O)nn1`, the negative logarithm of the IC50 (pIC50) in experiment [1] was 8.10; in experiment [2], 8.00.

For `CC(=O)N[C@H]1[C@H]([C@H](O)[C@H](O)CO)OC(C(=O)O)=C[C@@H]1NC(=N)NC(=O)Cn1cc(-c2ccc(N)cc2)nn1`, the negative-log IC50 (pIC50) was 7.92 in experiment [1] and 7.89 in experiment [2].

Take `CC(=O)N[C@H]1C([C@H](O)[C@H](O)CO)OC(C(=O)O)=C[C@@H]1NC(=N)NC(=O)CCCn1cc(-c2ccccc2)nn1` (stereo partly drawn): the pIC50 in experiment [3] is 6.64; in experiment [4], 6.62.

Turning to `COc1ccc2cc(-c3cn(CC(=O)NC(=N)N[C@H]4C=C(C(=O)O)O[C@@H]([C@H](O)[C@H](O)CO)[C@@H]4NC(C)=O)nn3)ccc2c1`, the negative logarithm of the IC50 (pIC50) was 7.51 in experiment [1] and 7.55 in experiment [2].

As for `CC(=O)N[C@H]1[C@H]([C@H](O)[C@H](O)CO)OC(C(=O)O)=C[C@@H]1NC(=N)NC(=O)Cn1cc(-c2cccc(N)c2)nn1`, the negative-log IC50 (pIC50) in experiment [1] was 8.00; in experiment [2], 7.96.
